Assay results: PubChem BioAssay AID1959 (Broad Institute, 2009)
Active and inactive are the calls of the source.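 The calls were made as follows: active = growth-inhibition EC50 no more than tenfold above the top tested dose; inconclusive = flat fit between 30% and 70% inhibition, or unreliable fit; inactive = EC50 more than tenfold above the top tested dose.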

Tested on: E. coli NEB5alpha growth, BacTiter-Glo luminescence, 4 h
Test: Escherichia coli growth inhibition, dose response, counter-screen for MEX-5/POS-1 RNA-binding inhibitor project, luminescence, NEB5alpha (AID 1959);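 also: pUC19-transformed ampicillin-resistant cells grown in LB with ampicillin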

| SMILES | EC50 |
| --- | --- |
| Cc1cc(C=O)c(C)n1-c1ccc(Cl)c(C(=O)O)c1 | > 11 µM (inactive) |
| CSc1nncc(/C(C)=N\Nc2ccccc2)n1 | > 11 µM (inactive) |
| Cc1nnc(N2C(=O)C(O)=C(C(=O)c3ccco3)C2c2ccc(F)cc2)s1 (stereo not drawn) | > 11 µM (inactive) |
| O=c1oc2c3c4c(cc2s1)CCCN4CCC3 | > 11 µM (inactive) |
| CCC(=O)Nc1cc(C)c(NC(=O)CCc2ccccc2)cn1 | > 11 µM (inactive) |
| Clc1cccc(CSc2nc3ccncc3[nH]2)c1 | > 11 µM (inactive) |
| Cc1c(C=N)c(O)n(C)c(=O)c1C#N | > 11 µM (inactive) |
| CC(C)(O)[C@H]1O[C@H]2CC[C@@]3(C)[C@@](O)(CC[C@H]4Cc5c([nH]c6ccccc56)[C@@]43C)C2=CC1=O | > 11 µM (inactive) |
| O=C(N=c1ccn(-c2nc3ccccc3nc2NS(=O)(=O)c2ccccc2)cc1)c1ccccc1Cl | > 11 µM (inactive) |
| CC1=C[C@@H]2c3cccc4[nH]cc(c34)C[C@H]2N(C)C1 | > 11 µM (inactive) |
| Cc1ccccc1N1C(=O)NC(=O)/C(=C\c2cc(C)n(C)c2C)C1=O | > 11 µM (inactive) |
| O=C(O)c1ccccc1N(c1ccccc1)c1ccccc1 | > 11 µM (inactive) |
| CS(=O)(=O)Oc1ccc2c(c1)O/C(=C\C=C\c1ccccc1)C2=O | > 11 µM (inactive) |
| CCOc1ccc(-n2c(O)c(C=Nc3ccc(N4CCOCC4)cc3)c(=O)[nH]c2=O)cc1 | > 11 µM (inactive) |
| NC(=Nc1ccc(N)cc1)C(N)=Nc1ccc(N)cc1 | > 11 µM (inactive) |
| O=C(/C=C(\O)c1ccccc1)C(=O)NNC(=O)c1ccccc1[N+](=O)[O-] | > 11 µM (inactive) |
| Cc1c(N=Cc2c(O)n(Cc3ccco3)c(=O)[nH]c2=O)c(=O)n(-c2ccccc2)n1C | > 11 µM (inactive) |
| N#CC1=C(N)Oc2ccc3ccc(O)cc3c2C1c1ccsc1 (stereo not drawn) | > 11 µM (inactive) |
| Cc1cccc(-n2c(C)cc(C=C3C(=O)c4ccccc4C3=O)c2C)c1 | > 11 µM (inactive) |
| CC(C)c1nnc(N2C(=O)C(O)=C(C(=O)c3cccs3)C2c2ccccc2)s1 (stereo not drawn) | > 11 µM (inactive) |
| Nc1c(NCCC2=CCCCC2)c(=O)[nH]c(=O)n1Cc1ccccc1 | > 11 µM (inactive) |
| Cc1c(/C=N/Nc2ccc(F)cc2)c(O)n(C)c(=O)c1C#N | > 11 µM (inactive) |
| [O-]/C(=C(\C(=S)NCc1ccco1)[n+]1ccccc1)c1ccccc1Br | > 11 µM (inactive) |

| SMILES | EC50 |
| --- | --- |
| COC(=O)c1c(C(=O)OC)c2n(c1C)Cc1ccccc1C2 | > 11 µM (inactive) |
| C=CCOc1ccc(C2OC34CCCCC3C(C#N)(C#N)C2(C#N)C(=N)O4)cc1 (stereo not drawn) | > 11 µM (inactive) |
| Cc1ccc2cc(/C=C(\C#N)C(N)=O)c(N3CCCCC3)nc2c1 | > 11 µM (inactive) |
| CCn1c(=N)c(S(=O)(=O)c2ccc(F)cc2)cc2c(=O)n3ccccc3nc21 | > 11 µM (inactive) |
| COc1ccc(OC)c(C2Nc3c(Cl)ccc(C(=O)O)c3C3C=CCC32)c1 (stereo not drawn) | > 11 µM (inactive) |
| O=C(NNC(=O)c1ccccc1O)c1cccc(Br)c1 | > 11 µM (inactive) |
| O=c1[nH]c(=O)n(Cc2ccccc2Cl)c(O)c1C=Nc1ccc(F)cc1 | > 11 µM (inactive) |
| O=C(O)c1cc(O)c2c(c1)C(=O)c1cccc(O)c1C2=O | > 11 µM (inactive) |
| Cc1ccccc1NC(=O)CN1C(=O)S/C(=C\c2cccn2-c2cccc(C(=O)O)c2)C1=O | > 11 µM (inactive) |
| Oc1ccc(NC(=S)N=Nc2c(O)[nH]c3ccccc23)cc1 | > 11 µM (inactive) |
| CCOC(=O)C1Nc2ccc(Br)cc2C2C=CCC12 (stereo not drawn) | > 11 µM (inactive) |
| CC1(OC(=O)c2ccco2)C(=O)C=C2C=C(c3ccc(C#N)cc3)OC=C2C1=O (stereo not drawn) | > 11 µM (inactive) |
| CNC(=O)c1c(NC(=O)c2ccc(S(=O)(=O)N3CCCc4ccccc43)cc2)sc2c1CCN(C)C2 | > 11 µM (inactive) |
| COc1ccc(NC(=O)c2ccc(NCCCN3CCOCC3)c([N+](=O)[O-])c2)cc1 | > 11 µM (inactive) |
| COc1ccc(OC)c(/C=c2\sc3nc(-c4cccs4)nn3c2=O)c1 | > 11 µM (inactive) |
| N/C(=N\N=C/c1ccc(-c2ccc(O)c(C(=O)O)c2)o1)N[N+](=O)[O-] | > 11 µM (inactive) |
| CCCn1c(=N)c(C(=O)NCC2CCCO2)cc2c(=O)n3cccc(C)c3nc21 (stereo not drawn) | > 11 µM (inactive) |
| CCN(CC)CCN1C(=O)C(O)=C(C(=O)c2cc3cccc(OC)c3o2)C1c1ccc(F)cc1 (stereo not drawn) | > 11 µM (inactive) |
| CCOC(=O)c1c2ccc(OCC(=O)N/N=C/c3ccc(C)cc3)cc2n2ccccc12 | > 11 µM (inactive) |
| COc1ccc(-n2nc3c(=O)[nH][nH]c3cc2=O)cc1 | > 11 µM (inactive) |
| CCCCC1=CC2=CC(=O)C(C)(OC(=O)c3ccc(Cl)nc3)C(=O)C2=CO1 (stereo not drawn) | > 11 µM (inactive) |
| O=C(O)c1cc(-n2cccc2)ccc1N1CCOCC1 | > 11 µM (inactive) |
| CCN1CCN(C(=O)c2ccc3c(=O)n(Cc4ccccc4OC)c(=S)[nH]c3c2)CC1 | > 11 µM (inactive) |

| SMILES | EC50 |
| --- | --- |
| CC(=O)c1sc2nc(-c3cccs3)cc(C(F)(F)F)c2c1N | > 11 µM (inactive) |
| Cc1ccc(C)c(N2CCN(C(=O)c3cc4ccccn4n3)CC2)c1 | > 11 µM (inactive) |
| O=C(C1=C(O)C(=O)N(c2ncccn2)C1c1cccs1)c1ccco1 (stereo not drawn) | > 11 µM (inactive) |
| CCC(C)[C@@H](N)C(=O)N/N=C/c1cccc2nccnc12 (stereo partly drawn) | > 11 µM (inactive) |
| O=C(O)c1ccc(-n2cccc2/C=C2/SC(=O)N(CC(=O)N3CCCC3)C2=O)cc1 | > 11 µM (inactive) |
| Cc1ccc(Cl)c2c(N=Nc3ccccc3)c(O)[nH]c12 | > 11 µM (inactive) |
| CCN(CC)c1ccc2cc(C#N)c(=O)oc2c1 | > 11 µM (inactive) |
| C=CCSc1nnc(N2C(=O)C(O)=C(C(=O)c3ccco3)C2c2ccccc2F)s1 (stereo not drawn) | > 11 µM (inactive) |
| COc1cc(OC)c(C2C(C#N)=C(N)OC3=C2C(=O)CC(C)C3)cc1OC (stereo not drawn) | > 11 µM (inactive) |
| CN1C(=O)C(=Cc2sc(=O)n(-c3ccccc3)c2N2CCCCC2)C(=O)N(C)C1=O | > 11 µM (inactive) |
| O=C1N=C(N2CCCCC2)S/C1=C/C1=Cc2ccccc2OC1 | > 11 µM (inactive) |
| CCc1ccc(NC(=O)/C(C#N)=C/c2cc3ccc(C)cc3nc2N2CCOCC2)cc1 | > 11 µM (inactive) |
| O=C1CCC/C1=c1\s/c(=C\c2cccnc2)c(=O)n1-c1ccccc1 | > 11 µM (inactive) |
| Cc1ccc2ccc(C3C(=O)c4ccccc4C3=O)nc2c1 | > 11 µM (inactive) |
| O=C1NC(=O)N(c2ccccc2)C(=O)/C1=C\c1ccc2c3c(cccc13)CC2 | > 11 µM (inactive) |
| COc1ccc(/C=C(\C#N)C(=O)NCC2CCCO2)cc1OC (stereo not drawn) | > 11 µM (inactive) |
| COc1ccc(N2C(=O)C(Cl)=C(Nc3ccccc3O)C2=O)cc1 | > 11 µM (inactive) |
| Cc1cccc(N2C(=O)/C(=C/c3ccc(N4CCN(C)CC4)o3)C(=O)NC2=S)c1C | > 11 µM (inactive) |
| Cc1ccc(C2C3CN(C(C)C)CC=C3C(C#N)=C(N)C2(C#N)C#N)cc1 (stereo not drawn) | > 11 µM (inactive) |
| O=c1[nH]c(=O)n(-c2cccc(Cl)c2)c(O)c1/C=N/c1ccccn1 | > 11 µM (inactive) |
| COCCN1CCC(CNCc2c(C(=O)N3CCCCC3)nc3c(C)cccn23)C1 (stereo not drawn) | > 11 µM (inactive) |
| CCn1c(/C=C/c2ccc([N+](=O)[O-])o2)nc2ccccc2c1=O | > 11 µM (inactive) |
